Reference: patent publication US7994140B2, “Classes of compounds that interact with GPCRs” (Alchemia Limited, priority 2002, dated 2011)

The molecules below were run against T1, MC4 (Homo sapiens, UniProt P32245) (assay: GPCR radioligand binding (RLB) assay, melanocortin MC4, [125I]NDP-αMSH). Details: 1.0 micromolar compound.
T1 construct: purchased Perkin Elmer BioSignal; host or cells: HEK 293
T1 sequence (P32245 whole entry): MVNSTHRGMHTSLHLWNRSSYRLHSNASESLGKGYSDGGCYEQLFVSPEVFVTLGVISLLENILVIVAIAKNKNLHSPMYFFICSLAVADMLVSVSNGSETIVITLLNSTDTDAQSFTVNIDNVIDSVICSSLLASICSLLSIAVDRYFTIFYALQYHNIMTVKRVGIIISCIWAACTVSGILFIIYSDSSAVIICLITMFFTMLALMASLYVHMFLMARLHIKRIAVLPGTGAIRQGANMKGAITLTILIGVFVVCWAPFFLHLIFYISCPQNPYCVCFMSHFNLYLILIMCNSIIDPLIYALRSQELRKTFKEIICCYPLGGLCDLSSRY
Description: Recombinant human receptors expressed in HEK 293 cells were used for all experiments. Receptor membrane preparations were purchased from Perkin Elmer BioSignal. The labelled ligand used in somatostatin GPCR RLB assays was [^125I]SST-14 and in melanocortin assays was [^125I]NDP-αMSH. All assays were done in a 96-well plate format using either glass fiber filter mats or filter plates. All reagents purchased were of the highest quality.
Specific assay buffer, incubation and washing conditions were optimized for each receptor however they all followed the same general format. The procedures for both filter mat and filter plate formats are based on the receptor manufacturers recommendations or those described extensively in the literature. The procedures are briefly outlined below.
In assays where filter mats are used we incubate receptor membranes, assay buffer and [^125I] labelled ligand in 96 well microplates. Add compounds to incubation mixture and continue incubation for optimized period. Presoak Filter mat GF/B in 0.5% PEI for ˜2 hr at 4° C. On completion of assay mixture incubation add additional 100 μL/well of assay buffer immediately prior to filtration. Filter the assay mixture onto the GF/B filter mat using a cell harvester. Dry the filter mats prior to sealing them into a scintillation counting bag with scintillant. Radioactivity in each well is detected by liquid scintillation counting.
In assays where filter plates are used Multiscreen glass fiber filter plates (Millipore, Cat No MAFCNOB10) are precoated with 0.5% PEI for ˜2 hr at 4° C. All wells are then washed with 200 µl/well assay buffer and filtered using the Multiscreen Separation System. Subsequently receptor membranes, assay buffer and labelled ligands are added to the wells and equilibrated. Compounds for testing are then added to the mixture and incubation is continued for an optimized time. Plates are then put into the Multiscreen Separation System and the assay mixture is filtered through the plate under vacuum. Each well is then washed several times with assay buffer. Plates are then dried prior to putting sealing tape onto the bottom of the plate. Scintillant is added to each well and radioactivity measured by liquid scintillation counting.
Raw data was analysed according to standard methods using either GraphPad Prism software or IDDBS ActivityBase software.
`CC(=O)N[C@H]1C(NC(=O)CCN)O[C@H](CO)[C@@H](O)[C@@H]1OCc1ccc(C)cc1` (stereo partly shown) [Compound 499] was tested, and the “MC4 Inhibition at 1.0 Micromolar” value was “+ (Indicates inhibition greater than . . . 50%)”.

Same assay, conditions: 4.0 Micromolar; Example Library 10
In the case of `NCCC(=O)N[C@H]1C(OCc2ccc3ccccc3c2)O[C@H](COCc2ccccc2)[C@@H](O)[C@@H]1OCc1ccc2ccccc2c1` (stereo partly shown) [Compound 358], the “MC4 Inhibition at 4.0 Micromolar” value is reported as “+ (Indicates inhibition greater than . . . 50%)”.
`NCCC(=O)N[C@H]1C(OCc2ccc3ccccc3c2)O[C@H](COCc2ccc3ccccc3c2)[C@@H](O)[C@@H]1OCc1ccccc1` (stereo partly shown) [Compound 361] was tested, and the “MC4 Inhibition at 4.0 Micromolar” value was “+ (Indicates inhibition greater than . . . 50%)”.
For `NCC(=O)N[C@H]1C(OCc2ccc(Cl)cc2)O[C@H](COCc2ccccc2)[C@@H](O)[C@@H]1OCc1ccccc1` (stereo partly shown) [Compound 384], the “MC4 Inhibition at 4.0 Micromolar” value was “+ (Indicates inhibition greater than . . . 50%)”.
`NCCCC(=O)N[C@H]1C(OCc2ccc3ccccc3c2)O[C@H](COCc2ccc3ccccc3c2)[C@@H](O)[C@@H]1OCc1ccc2ccccc2c1` (stereo partly shown) [Compound 369] was tested, and the “MC4 Inhibition at 4.0 Micromolar” value was “+ (Indicates inhibition greater than . . . 50%)”.
For `NCCCC(=O)N[C@H]1C(OCc2ccc3ccccc3c2)O[C@H](COCc2ccc(Cl)cc2)[C@@H](O)[C@@H]1OCc1ccc2ccccc2c1` (single isomer, unassigned) [Compound 371], the “MC4 Inhibition at 4.0 Micromolar” value was “+ (Indicates inhibition greater than . . . 50%)”.
With `NCCCC(=O)N[C@H]1C(OCc2ccc3ccccc3c2)O[C@H](COCc2ccccc2)[C@@H](O)[C@@H]1OCc1ccccc1` (stereo partly shown) [Compound 374] the “MC4 Inhibition at 4.0 Micromolar” value was “+ (Indicates inhibition greater than . . . 50%)”.
For `NCCC(=O)N[C@H]1C(OCc2ccc3ccccc3c2)O[C@H](COCc2ccccc2)[C@@H](O)[C@@H]1OCc1ccccc1` (single isomer, unassigned) [Compound 362], the “MC4 Inhibition at 4.0 Micromolar” value was “+ (Indicates inhibition greater than . . . 50%)”.
With `NCCCC(=O)N[C@H]1C(OCc2ccc3ccccc3c2)O[C@H](COCc2ccc(Cl)cc2)[C@@H](O)[C@@H]1OCc1ccc(Cl)cc1` (single isomer, unassigned) [Compound 368] the “MC4 Inhibition at 4.0 Micromolar” value was “+ (Indicates inhibition greater than . . . 50%)”.
For `NCCC(=O)N[C@H]1C(OCc2ccc(Cl)cc2)O[C@H](COCc2ccccc2)[C@@H](O)[C@@H]1OCc1ccc2ccccc2c1` (stereo partly shown) [Compound 379], the “MC4 Inhibition at 4.0 Micromolar” value was “+ (Indicates inhibition greater than . . . 50%)”.
For `NCCC(=O)N[C@H]1C(OCc2ccc(Cl)cc2)O[C@H](COCc2ccc(Cl)cc2)[C@@H](O)[C@@H]1OCc1ccc2ccccc2c1` (stereo partly shown) [Compound 381], the “MC4 Inhibition at 4.0 Micromolar” value was “+ (Indicates inhibition greater than . . . 50%)”.

Same assay, conditions: 4.0 Micromolar; Example Library 11
`NCCC(=O)NC1C(OCc2ccc3ccccc3c2)OC(COCc2ccccc2)C(O)C1OCc1ccccc1` (stereo not shown) [Compound 420] was tested, and the “MC4 Inhibition at 4.0 Micromolar” value was “+ (Indicates inhibition greater than . . . 50%)”.
With `NCCCC(=O)NC1C(OCc2ccc3ccccc3c2)OC(COCc2ccc(Cl)cc2)C(O)C1OCc1ccccc1` (stereo not shown) [Compound 430] the “MC4 Inhibition at 4.0 Micromolar” value was “+ (Indicates inhibition greater than . . . 50%)”.
`NCCC(=O)NC1C(OCc2ccccc2)OC(COCc2ccc(Cl)cc2)C(O)C1OCc1ccc2ccccc2c1` (stereo not shown) [Compound 402] was tested, and the “MC4 Inhibition at 4.0 Micromolar” value was “+ (Indicates inhibition greater than . . . 50%)”.
With `NCCC(=O)NC1C(OCc2ccc3ccccc3c2)OC(COCc2ccc(Cl)cc2)C(O)C1OCc1ccc2ccccc2c1` (stereo not shown) [Compound 418] the “MC4 Inhibition at 4.0 Micromolar” value was “+ (Indicates inhibition greater than . . . 50%)”.
`NCCCC(=O)NC1C(OCc2ccc3ccccc3c2)OC(COCc2ccc(Cl)cc2)C(O)C1OCc1ccc2ccccc2c1` (stereo not shown) [Compound 427] was tested, and the “MC4 Inhibition at 4.0 Micromolar” value was “+ (Indicates inhibition greater than . . . 50%)”.

Same assay, conditions: 4.0 Micromolar; Example Library 12
For `N=C(N)NCC(=O)N[C@H]1C(OCc2ccccc2)O[C@H](COCc2ccccc2)[C@@H](O)[C@@H]1OCc1ccc(-c2ccccc2)cc1` (stereo partly shown) [Compound 442], the “MC4 Inhibition at 4.0 Micromolar” value was “+ (Indicates inhibition greater than . . . 50%)”.
In the case of `N=C(N)NCCC(=O)N[C@H]1C(OCc2ccccc2)O[C@H](COCc2ccc(Cl)cc2)[C@@H](O)[C@@H]1OCc1ccc(-c2ccccc2)cc1` (stereo partly shown) [Compound 461], the “MC4 Inhibition at 4.0 Micromolar” value is reported as “+ (Indicates inhibition greater than . . . 50%)”.
For `N=C(N)NCCC(=O)N[C@H]1C(OCc2ccccc2)O[C@H](COCc2ccc(Cl)cc2)[C@@H](O)[C@@H]1OCc1ccc2ccccc2c1` (stereo partly shown) [Compound 455], the “MC4 Inhibition at 4.0 Micromolar” value was “+ (Indicates inhibition greater than . . . 50%)”.
For `N=C(N)NCC(=O)N[C@H]1C(OCc2ccccc2)O[C@H](COCc2ccc(Cl)cc2)[C@@H](O)[C@@H]1OCc1ccc2ccccc2c1` (stereo partly shown) [Compound 440], the “MC4 Inhibition at 4.0 Micromolar” value was “+ (Indicates inhibition greater than . . . 50%)”.
With `N=C(N)NCCC(=O)N[C@H]1C(OCc2ccccc2)O[C@H](COCc2ccccc2)[C@@H](O)[C@@H]1OCc1ccc(-c2ccccc2)cc1` (stereo partly shown) [Compound 459] the “MC4 Inhibition at 4.0 Micromolar” value was “+ (Indicates inhibition greater than . . . 50%)”.
`N=C(N)NCC(=O)N[C@H]1C(OCc2ccccc2)O[C@H](COCc2ccc3ccccc3c2)[C@@H](O)[C@@H]1OCc1ccc(Cl)cc1` (stereo partly shown) [Compound 431] was tested, and the “MC4 Inhibition at 4.0 Micromolar” value was “+ (Indicates inhibition greater than . . . 50%)”.

Same assay, conditions: 4.0 Micromolar; Example Library 13
For `N=C(N)NCC(=O)N[C@H]1C(OCc2ccc(-c3ccccc3)cc2)O[C@H](COCc2ccc3ccccc3c2)[C@@H](O)[C@H]1OCc1ccc(Cl)cc1` (stereo partly shown) [Compound 463], the “MC4 Inhibition at 4.0 Micromolar” value was “+ (Indicates inhibition greater than . . . 50%)”.
`N=C(N)NCC(=O)NC1C(OCc2ccc(Cl)cc2)OC(COCc2ccc(Cl)cc2)C(O)C1OCc1ccc2ccccc2c1` (stereo not shown) [Compound 484] was tested, and the “MC4 Inhibition at 4.0 Micromolar” value was “+ (Indicates inhibition greater than . . . 50%)”.
`N=C(N)NCCC(=O)N[C@H]1C(OCc2ccc(-c3ccccc3)cc2)O[C@H](COCc2ccc3ccccc3c2)[C@@H](O)[C@H]1OCc1ccc2ccccc2c1` (stereo partly shown) [Compound 473] was tested, and the “MC4 Inhibition at 4.0 Micromolar” value was “+ (Indicates inhibition greater than . . . 50%)”.
`N=C(N)NCC(=O)NC1C(OCc2ccc(Cl)cc2)OC(COCc2ccc3ccccc3c2)C(O)C1OCc1ccc2ccccc2c1` (stereo not shown) [Compound 482] was tested, and the “MC4 Inhibition at 4.0 Micromolar” value was “+ (Indicates inhibition greater than . . . 50%)”.
For `N=C(N)NCC(=O)N[C@H]1C(OCc2ccc(-c3ccccc3)cc2)O[C@H](COCc2ccc(Cl)cc2)[C@@H](O)[C@H]1OCc1ccc2ccccc2c1` (stereo partly shown) [Compound 467], the “MC4 Inhibition at 4.0 Micromolar” value was “+ (Indicates inhibition greater than . . . 50%)”.
`N=C(N)NCC(=O)NC1C(OCc2ccc(Cl)cc2)OC(COCc2ccccc2)C(O)C1OCc1ccc2ccccc2c1` (stereo not shown) [Compound 483] was tested, and the “MC4 Inhibition at 4.0 Micromolar” value was “+ (Indicates inhibition greater than . . . 50%)”.
In the case of `N=C(N)NCCC(=O)NC1C(OCc2ccc(Cl)cc2)OC(COCc2ccc3ccccc3c2)C(O)C1OCc1ccc2ccccc2c1` (stereo not shown) [Compound 491], the “MC4 Inhibition at 4.0 Micromolar” value is reported as “+ (Indicates inhibition greater than . . . 50%)”.

Same assay, conditions: 4.0 micromolar compound
For `COC1C(O)C(COCc2ccc3ccccc3c2)OC(OCc2ccc(Cl)cc2)C1NC(=O)C(N)CN` (stereo not shown) [Compound 342], the “MC4 Inhibition at 4.0 Micromolar” value was “+ (Indicates inhibition greater than . . . 50%)”.
With `COC1C(O)C(COCc2ccc3ccccc3c2)OC(OCc2ccc(Cl)cc2)C1NC(=O)C1CCN(C(=N)N)CC1` (stereo not shown) [Compound 348] the “MC4 Inhibition at 4.0 Micromolar” value was “+ (Indicates inhibition greater than . . . 50%)”.

Same assay, conditions: 10 micromolar compound; recombinant human receptor membranes (HEK 293)
In the case of `CSC1OC(COCc2ccc3ccccc3c2)C(O)C(OCc2ccc(-c3ccccc3)cc2)C1NC(=O)CN` (stereo not shown) [Compound 185], the “MC4 inhibition at 10 micromolar” value is reported as “+ (Indicates inhibition greater than . . . 50%)”.
`CO[C@H]1[C@H](O)[C@@H](COCc2ccc3ccccc3c2)OC(OCc2cccc(O)c2)[C@@H]1NC(=O)CCNC(=N)N` (stereo partly shown) [Compound 116] was tested, and the “MC4 inhibition at 10 micromolar” value was “+ (Indicates inhibition greater than . . . 50%)”.
For `CSC1O[C@H](COCc2ccccc2)[C@@H](O)[C@H](OCc2cccc(N)c2)[C@H]1NC(=O)c1c[nH]c2ccccc12` (stereo partly shown) [Compound 318], the “MC4 inhibition at 10 micromolar” value was “+ (Indicates inhibition greater than . . . 50%)”.
`CO[C@H]1[C@H](O)[C@@H](COCc2ccc(Cl)cc2)OC(OCc2ccc(Cl)cc2)[C@@H]1NC(=O)CCNC(=N)N` (stereo partly shown) [Compound 93] was tested, and the “MC4 inhibition at 10 micromolar” value was “+ (Indicates inhibition greater than . . . 50%)”.
In the case of `CO[C@H]1[C@H](O)[C@@H](COCc2ccc3ccccc3c2)OC(OCCc2ccccc2)[C@@H]1NC(=O)CCNC(=N)N` (stereo partly shown) [Compound 101], the “MC4 inhibition at 10 micromolar” value is reported as “+ (Indicates inhibition greater than . . . 50%)”.
For `COC1C(O)C(COCc2ccc(-c3ccccc3)cc2)OC(OCc2ccc3ccccc3c2)C1NC(=O)CCCNC(=N)N` (stereo not shown) [Compound 70], the “MC4 inhibition at 10 micromolar” value was “+ (Indicates inhibition greater than . . . 50%)”.
`COC1C(O)C(COCc2ccc(Cl)cc2)OC(OCc2ccc(-c3ccccc3)cc2)C1NC(=O)CCCN` (stereo not shown) [Compound 65] was tested, and the “MC4 inhibition at 10 micromolar” value was “+ (Indicates inhibition greater than . . . 50%)”.
`CSC1O[C@H](COCc2ccc(Cl)cc2)[C@@H](O)[C@H](OCc2cccc(N)c2)[C@H]1NC(=O)c1c[nH]c2ccccc12` (stereo partly shown) [Compound 323] was tested, and the “MC4 inhibition at 10 micromolar” value was “+ (Indicates inhibition greater than . . . 50%)”.
In the case of `CO[C@H]1[C@H](O)[C@@H](COCc2ccc(-c3ccccc3)cc2)OC(OCCc2ccccc2)[C@@H]1NC(=O)CCCNC(=N)N` (stereo partly shown) [Compound 99], the “MC4 inhibition at 10 micromolar” value is reported as “+ (Indicates inhibition greater than . . . 50%)”.
